“And” between values parts separate entries of the source, which are not always exact repeats. Equal entries are not always repeated. Where two headings read alike, the source gives them in different places.
Tests used:
[1] = system: patients with cognitive dysfunction caused by HIV-associated CM-IRIS; assay type: in vivo, human; conditions: for ΔMoCA: week 24 - week 0, median
TNF-α = conditions: cited from earlier work
[2] = cited from earlier work
[3] = system: intracranial inflammation (CSF WBC, protein, albumin, IgG, glucose, chlorine, pressure); assay: CSF routine and biochemistry analysis; assay type: in vivo, human; conditions: for Chlorine-W 24 / Protein-W 24 / WBC-W 24 / Glucose-W23 / Δ Protein / ΔChlorine / ΔGlucose / ΔWBC: CSF; for Glucose-W23: after treatment; for Δ Protein / ΔChlorine / ΔGlucose / ΔWBC / ΔICP: week 24 - week 0, median
[4] = in vivo; cited from earlier work
[5] = individual Patients 1-4 (cognitive improvement group)
[6] = individual Patients 5-7 (cognitive non-improvement group)

For `Nc1cccc2c1CN(C1CCC(=O)NC1=O)C2=O` (stereo not drawn) [lenalidomide], the “median MoCA score” value ([1]; W24, after 6 cycles lenalidomide 25 mg/day (21 days on, 7 off), 7 patients, baseline 23.0 (13.0-24.0), P=0.018) was 26.0 (24.0-28.0), the “memory score in the MoCA” value ([1]; W24, baseline 1.0 (0-3.0), P=0.026) was 4.0 (3.0-5.0) and the “MoCA-W 24” value [1, 5] was 30 scores and 26 scores (2×) and 28 scores. For the same molecule, the “MoCA-W 24” value [1, 6] was 24 scores and 25 scores and 19 scores, the ΔMoCA ([1]; CI group) was 8.5 scores and the ΔMoCA ([1]; CNI group) was 1.0 scores. The “inhibitory effect on TNF-α relative to thalidomide” value (TNF-α) was 2000 times, the bioavailability [2] was “high” and the “change in CSF WBC after lenalidomide treatment” value ([3]; CI group, P=0.032) was “significant decline”. For the same molecule, the “change in CSF albumin after lenalidomide treatment” value ([3]; CI group, P=0.034) was “significant decline”, the “change in CSF protein after lenalidomide treatment” value ([3]; CI group, P=0.034) was “significant decline” and the “change in CSF IgG levels after lenalidomide treatment” value ([3]; CI group, P=0.050) was “significant decline”. For the same molecule, the “Chlorine-W 24” value [3, 5] was 128 mmol/L (2×) and 131 mmol/L and 121 mmol/L, the “Protein-W 24” value [3, 5] was 1.081 g/L and 1.24 g/L and 0.745 g/L and 0.788 g/L and the “WBC-W 24” value [3, 5] was 2 ×106/L (2×) and 10 ×106/L and 0 ×106/L. The “Chlorine-W 24” value [3, 6] was 123 mmol/L (2×) and 127 mmol/L, the “Protein-W 24” value [3, 6] was 0.37 g/L and 0.908 g/L and 1.15 g/L and the “WBC-W 24” value [3, 6] was 1e+06 L⁻¹ and 1e+07 L⁻¹ and 7e+06 L⁻¹. The Glucose-W23 [3, 5] was 2.4 mmol/L and 2.5 mmol/L and 3.6 mmol/L and 2.6 mmol/L, the Glucose-W23 [3, 6] was 4.7 mmol/L and 2.4 mmol/L and 2.8 mmol/L and the “Δ Protein” value ([3]; CI group) was -4.4 g/L. For the same molecule, the ΔChlorine ([3]; CI group) was 2.0 mmol/L, the ΔGlucose ([3]; CI group) was 0.4 mmol/L and the ΔWBC ([3]; CI group) was -1.18e+08 L⁻¹. The “Δ Protein” value ([3]; CNI group) was 0.3 g/L, the ΔChlorine ([3]; CNI group) was -4.0 mmol/L and the ΔGlucose ([3]; CNI group) was -0.3 mmol/L. For the same molecule, the ΔWBC ([3]; CNI group) was 7e+06 L⁻¹, the “ICP-W 24” value [3, 5] was 120 mmH2O and 152 mmH2O and 150 mmH2O and 85 mmH2O and the “ICP-W 24” value [3, 6] was 200 mmH2O and 120 mmH2O and 95 mmH2O. For the same molecule, the ΔICP ([3]; CI group) was 10.0 mmH2O, the ΔICP ([3]; CNI group) was −20.0 mmH2O and the side effects [4] was “milder than those of thalidomide”.
